Some test systems named below: NCI-H226 lung; RPMI-8226 leukemia; 786-0 renal; SF-268 CNS; NCI/ADR-RES ovarian; NCI-H23 lung; HT29 colon; MDA-MB-231 breast; SF-539 CNS; CAKI-1 renal; IGROV1 ovarian.
Assay in all cases: NCI tumour cell line growth inhibition, 48 h

The structures appear in SMILES notation.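 All cell lines were grown in 96-well plates and treated with compound for 48 hours. TGI denotes the concentration required for complete inhibition of growth.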

As for `O=C(N/N=C1/C(=O)c2c3ccccc3cc3cccc1c23)c1ccccc1`, the TGI in the assay with NCI-H226 lung is greater than 66.6 µM; in the assay on RPMI-8226 leukemia, greater than 100 µM; with 786-0 renal, 43.1 µM; with SF-268 CNS it was greater than 91.9 µM; with NCI/ADR-RES ovarian it was greater than 100 µM; in the assay on NCI-H23 lung, greater than 100 µM. Besides, the TGI was greater than 87.9 µM in the assay on HT29 colon; greater than 100 µM in the assay with MDA-MB-231 breast; greater than 100 µM with SF-539 CNS; 70.1 µM in the assay with CAKI-1 renal; 85.5 µM in the assay with IGROV1 ovarian.

As to `CCNC(=O)c1c(O)c2ccccc2[nH]c1=O`, the TGI in the assay on NCI-H226 lung, with RPMI-8226 leukemia, in the assay with 786-0 renal, with SF-268 CNS, in the assay on NCI/ADR-RES ovarian and in the assay on NCI-H23 lung was greater than 100 µM each time. Besides, the TGI in the assay with HT29 colon, in the assay with MDA-MB-231 breast, with SF-539 CNS, with CAKI-1 renal and in the assay with IGROV1 ovarian was greater than 100 µM throughout.

On to `CC(C)=CCC/C(C)=C/CC/C(C)=C/CC/C(=C/CC/C(C)=C\CC/C(C)=C/CC/C(C)=C/CC/C(C)=C/Cc1cc(O)ccc1O)CO`, for which the TGI in the assay with NCI-H226 lung is 6.54 µM; with RPMI-8226 leukemia, greater than 100 µM; with 786-0 renal, 9.66 µM; with SF-268 CNS, 9.17 µM; with NCI/ADR-RES ovarian, 19.4 µM; in the assay on NCI-H23 lung it was 4.89 µM. The TGI was 18.9 µM in the assay on HT29 colon; greater than 78.8 µM in the assay with MDA-MB-231 breast; 2.48 µM in the assay with SF-539 CNS; 4.82 µM in the assay with CAKI-1 renal; 10.9 µM in the assay with IGROV1 ovarian.

With `O=C1OC(=O)c2cc(S(=O)(=O)c3ccc4c(c3)C(=O)OC4=O)ccc21`, the TGI in the assay with NCI-H226 lung, in the assay on RPMI-8226 leukemia, in the assay on 786-0 renal, in the assay on SF-268 CNS, in the assay on NCI/ADR-RES ovarian and in the assay on NCI-H23 lung was greater than 100 µM each time. Also, the TGI with HT29 colon, in the assay with MDA-MB-231 breast, with SF-539 CNS, with CAKI-1 renal and with IGROV1 ovarian was greater than 100 µM in each case.

On to `C=C1C(=O)O[C@@H]2C[C@]3(C)CC[C@]4(C)[C@H](CC[C@@H]5[C@@]6(C)CCC(=O)C(C)(C)[C@@H]6CC[C@]54C)[C@H]3[C@H]12`, for which the TGI with NCI-H226 lung is 38.4 µM; in the assay on RPMI-8226 leukemia, 5.8 µM; in the assay with 786-0 renal it was 30.2 µM; with SF-268 CNS, 46.1 µM; in the assay on NCI/ADR-RES ovarian it was 66.7 µM; with NCI-H23 lung, 57.3 µM. For the same molecule, the TGI with HT29 colon was greater than 56.7 µM; with MDA-MB-231 breast, 47.1 µM; in the assay on SF-539 CNS, 38.2 µM; in the assay on CAKI-1 renal, 30.2 µM; in the assay with IGROV1 ovarian it was 39.2 µM.

As for `FC(F)(F)c1cccc(-c2nc3ccccc3c3c2[C@@]2(N4CCCC4)CCCC[C@@H]32)c1`, the TGI was greater than 100 µM in the assay on NCI-H226 lung; 41.4 µM in the assay with RPMI-8226 leukemia; greater than 100 µM in the assay with 786-0 renal; greater than 100 µM in the assay on SF-268 CNS; greater than 100 µM in the assay on NCI/ADR-RES ovarian; greater than 100 µM in the assay on NCI-H23 lung. Further, the TGI with HT29 colon was greater than 100 µM; with MDA-MB-231 breast, 49.3 µM; in the assay with SF-539 CNS, greater than 100 µM; in the assay with CAKI-1 renal, greater than 100 µM; in the assay with IGROV1 ovarian, 37.4 µM.

As for `CC(=O)OC1COC(Nc2nc(NCc3ccccc3)n(C)c(=O)c2N=O)C(OC(C)=O)C1OC(C)=O` (stereo not given), the TGI in the assay on NCI-H226 lung, with RPMI-8226 leukemia, with 786-0 renal, with SF-268 CNS, with NCI/ADR-RES ovarian and in the assay with NCI-H23 lung was greater than 10 µM in each case. Further, the TGI in the assay with HT29 colon, in the assay with MDA-MB-231 breast, in the assay on SF-539 CNS, in the assay with CAKI-1 renal and with IGROV1 ovarian was greater than 10 µM in each case.

With `Clc1ccc(C2Nc3ccccc3C3=NCCN32)cc1` (stereo not given), the TGI in the assay on RPMI-8226 leukemia was 42.4 µM; in the assay with 786-0 renal, 48.9 µM; in the assay with SF-268 CNS, 84.5 µM; in the assay on NCI/ADR-RES ovarian, 60.4 µM; in the assay on NCI-H23 lung it was 55.4 µM; in the assay with HT29 colon, 38.5 µM. The TGI was greater than 100 µM with MDA-MB-231 breast, 30.6 µM in the assay with SF-539 CNS, greater than 100 µM in the assay with CAKI-1 renal and 49.2 µM with IGROV1 ovarian.

Consider `CC(=O)N=C1N(/C=C2\C(=O)Oc3ccccc3C2=O)C(=O)/C(=C/c2ccc(NC(C)=O)cc2)N1C`, for which the TGI with NCI-H226 lung, in the assay on RPMI-8226 leukemia, in the assay with 786-0 renal, with SF-268 CNS, in the assay with NCI/ADR-RES ovarian and with NCI-H23 lung was greater than 100 µM in each case. Besides, the TGI in the assay on HT29 colon, in the assay on MDA-MB-231 breast, with SF-539 CNS, with CAKI-1 renal and in the assay with IGROV1 ovarian was greater than 100 µM throughout.

For `CC1(C)C2CC(=O)C1(C)C(OCc1ccccc1)C2` (stereo not given), the TGI with NCI-H226 lung, in the assay with RPMI-8226 leukemia, in the assay on 786-0 renal, with SF-268 CNS, in the assay on NCI/ADR-RES ovarian and in the assay on NCI-H23 lung was greater than 100 µM in each case. In addition, the TGI with HT29 colon, in the assay with MDA-MB-231 breast, with SF-539 CNS, in the assay with CAKI-1 renal and in the assay with IGROV1 ovarian was greater than 100 µM throughout.

Take `C=C1C(=O)O[C@H]2[C@@H](O)[C@H](C)CCC[C@]3(C)O[C@H]3CC[C@@]3(C)O[C@@H]3C[C@@H]12`: the TGI was 14.5 µM in the assay with NCI-H226 lung; 50 µM in the assay on RPMI-8226 leukemia; 12.5 µM in the assay on 786-0 renal; 14.9 µM in the assay with SF-268 CNS; 19 µM in the assay with NCI/ADR-RES ovarian; 13 µM in the assay with NCI-H23 lung. Also, the TGI in the assay on HT29 colon was 12.1 µM; with MDA-MB-231 breast, 10.8 µM; in the assay with SF-539 CNS it was 13.3 µM; in the assay with CAKI-1 renal, 13 µM; with IGROV1 ovarian, 12.1 µM.

`CCOP(=O)(OCC)C(N)c1ccc(Cl)cc1` (stereo not given): the TGI with RPMI-8226 leukemia, with 786-0 renal, with SF-268 CNS, in the assay on NCI/ADR-RES ovarian, in the assay with NCI-H23 lung and in the assay with HT29 colon was greater than 100 µM throughout. Moreover, the TGI in the assay with MDA-MB-231 breast, with SF-539 CNS, in the assay with CAKI-1 renal and in the assay with IGROV1 ovarian was greater than 100 µM in each case.

For the origin of these results see PubChem BioAssay (NCI).
